Results reported in US7524503B2, “Human cytomegalovirus (HCMV) cytotoxic T cell epitopes, polyepitopes compositions comprising same and diagnostic and prophylactic and therapeutic uses therefor” (priority 2001, dated 2009).

Columns and labels:
[1] = system: PBMC from healthy HCMV seropositive donors; assay: IFN-γ ELISPOT assay; type: cell-based, human; conditions: for ELISPOT Responses (SFC/10^6 PBMC): peptide 10 μg/ml
Description: ELISPOT assay was used to assess whether stimulation of PBMC from a large panel of seropositive donors with HCMV peptides could induce IFN-γ expression in T cells. Briefly, a 96-well nitrocellulose plate (Multiscreen, Millipore) was coated overnight at 4° C. with mouse monoclonal antibody anti-IFN-γ IgG1 (10 μg/ml; Mabtech Nacka, Sweden). The plate was then washed six times in Phosphate Buffered Saline (PBS) and blocked for 1 hour at 37° C. with PBS supplemented with 5% FCS. The blocking solution was removed and PBMC from healthy HCMV seropositive donors were added at a concentration of 2.5×10^5 cells per well in growth medium. These cells were incubated for 18 h at 37° C. in a 5% CO2 atmosphere in the presence of synthetic peptides from HCMV antigens (10 μg/ml). After incubation, the plate was washed three times with PBS supplemented with 0.05% Tween, followed by three washes with PBS alone. Biotinylated anti-IFN-γ (Mabtech, Nacka Sweden) detection antibody was added to each well at a final concentration of 1 μg/ml in PBS. The plates were incubated at room temperature in the dark for 4 h and then washed, as described above. Streptavidin-Alkaline phosphatase (Sigma) was added to each well at a final concentration of 1 μg/ml in PBS and incubated at room temperature in the dark for 2 h. After a final wash with PBS, the substrate, 5-bromo-4-chloro-3-indolyl phosphate and nitro blue tetrazolium, was added to each well and the plates incubated for 30 min at RT. Cells that produced IFN-γ in response to the presence of peptide were detected as purple spots on the nitrocellulose membrane of each well. The spots were counted automatically using a closed-circuit camera (CCD) and ImagePro image analysis software or automated ELISPOT reader (AID, Germany). The T cell precursor frequency for each peptide was based on the total number of PBMC in the well and the number of peptide-specific spots per well, over an average of 3 wells. The number of peptide-specific spots was also calculated by subtracting the negative control values, which consisted of PBMC without peptide (an average of 3 wells), from the test wells.
To determine whether memory CTL responses against the predictive HCMV potential epitopes could be detected in healthy seropositive virus carriers, we used the ELISPOT assay, which allows rapid identification of CTL epitopes without prolonged in vitro culture.
We tested epitopes that were restricted for HLA A1, A3, A24, A26, B7, B8, B27, B35 and B44 in ELISPOT assays, to determine whether memory T cell responses could be detected in healthy HLA-matched virus carriers. PBMC from a cohort of healthy virus carriers (Table 2) were stimulated with individual peptides and the cells that produced IFN-γ were detected. CTL epitopes that were restricted through either HLA A1, A3, A24, A26, B7, B8 or B27, were identified.
Thus, a total of 450 peptides were produced. ELISPOT assays were used to determine whether ex vivo memory T cell responses could be detected in a cohort of 14 healthy virus carriers (Table 2). PBMC were stimulated with individual peptides and the cells that produced IFN-γ were detected.

[2] = system: CD4+ T cells; assay: CD4+/CD8+ analysis of 20-mer peptides (intracellular IFN-γ staining or depletion ELISPOT); type: cell-based, human
Description: (§1) To determine whether a particular 20-mer peptide contained either a CD4^+- or CD8^+-restricted epitope, or both, CD4^+/CD8^+ cell depletion ELISPOT assays were performed on PBMC from healthy virus carriers. For any one experiment, three populations of cells were used: a) CD8^+-depleted PBMC, b) CD4^+-depleted PBMC, and c) non-depleted PBMC. These populations of cells were tested concurrently with the same peptides in a conventional ELISPOT assay as described herein above. DYNABEADS M-450 (Dynal, Oslo, Norway) that bound specifically to CD4^+- or CD8^+ cells were used to perform the depletion essentially according to manufacturers instructions. Beads were washed twice in cold PBS supplemented with 2% FCS using magnetic isolation. The requisite number of cells was resuspended in cold PBS supplemented with 2% FCS, added to the beads and then incubated at 4° C., in the dark, for 30 mins (CD8^+ beads) or 60 mins (CD4^+ beads). Populations were depleted of CD4^+ or CD8^+ cells using magnetic separation. After depletion, the non-attached cells were removed and washed once in growth medium, counted and used in conventional ELISPOT assay. Depleted cells were used at 1.7×10^5 cells per well and the non-depleted population was used at the standard 2.5×10^5 cells per well. After the depletion step, each respective cell population was assessed for the purity of CD4^+ and CD8^+ T cells by three-colour flow cytometry. Samples of depleted cell populations were stained with anti-CD3 antibody directly conjugated to fluorescein isothiocyanate (FITC), anti-CD4 antibody conjugated with phycoerythrin (PE) fluorochrome, and anti-CD8 antibody conjugated with Tricolor fluorochrome (described below). The percent of CD3^+/CD4^+ cells present within the CD8^+-depleted population and the percent of CD3^+/CD8^+ cells present within the CD4^+-depleted populations were assessed on FACSCalibur cytometer (Becton Dickinson). The purity of each population was greater than 90% and the results from the ELISPOT assays are expressed as the percentage of CD4+ or CD8^+ cells within the depleted populations that responded toward each peptide by producing IFN-γ.
(§2) PBMCs were incubated at 37° C. in RPMI+10% FCS with and without 10 μg/ml peptides for 6 hours. Golgiplug™ (Pharmingen, San Diego, Calif., USA) was added to the samples according to manufacturer's instructions during the second hour of incubation and cells activated with 25 ng/ml phorbol 12-myristidate 13-acetate (PMA; Sigma-Aldrich Co, St. Louis Mo.) and 1 μg/ml iomomycin (Sigma) acted as a positive control. Following the incubation, 1×10^6 cells/sample were washed and resuspended in staining buffer consisting of PBS with GolgiPlug™, 3% FCS and sodium azide. Cells were then stained with FITC conjugated anti-CD3-FITC (UCHT1, Immunotech, Marseille, France), and either Tricolor (TRI) conjugated anti-CD4 (S3.5, Caltag, Burlingame, Calif.) or anti-CD8 (3B5, Caltag) for 30 minutes, 4° C. in the dark. The cells were fixed for 20 min at 4° C. with Cytofix/Cytoperm™ (BD Biosciences) and resuspended in Perm/Wash™ permeabilization buffer (BD Biosciences) according to manufacturers protocol. Fixed cells were stained with phycoerythrin (PE) conjugated anti-human IFN-γ (B27, Pharmingen) for 30 min at 4° C. in the dark. As a negative control, cells were stained with appropriate isotype matched control antibodies. Cells were washed twice in permeabilization buffer and resuspended in staining buffer before analysis by three-colour flow cytometry on a FACSCalibur cytometer (BD Biosciences). All data analysis was carried out using FlowJo software (Tree Star, Inc. San Carlos, CA).
(§3) When using 20-mer peptides to map epitopes by ELISPOT, it is possible that some responses may be MHC class-II restricted, and not necessarily restricted through HLA class I alleles. It was evident throughout this study that some epitopes identified using ELISPOT could not be confirmed using cytotoxicity analysis. […]

[3] = system: CD8+ T cells; assay: as above; type: cell-based, human
Description: as §1, §2, §3

[4] = biological target: T1, HLA A2 (Homo sapiens, UniProt P04439, D140Y/D185E/D98H/E176V/E277Q/G131W/G231S/I119V/I121R/I166T/I218V/L300P/L318F/N151K/N90K/P208A/P217A/Q86G/Q94H/R138H/R169H/T345S); type: cell-based; conditions: HLA A2 on T2 cells; relative increase in HLA expression vs no peptide at 26° C.
T1 construct: endogenous in cells; host or cells: T2 cells

Sequence: AHELVCSMENTRATKMQVIG
- ELISPOT Responses (SFC/10^6 PBMC) ([1]; donor alpha): 169 SFC/10^6 PBMC
- ELISPOT Responses (SFC/10^6 PBMC) ([1]; donor seven): 231 SFC/10^6 PBMC
- Responding cells (% CD4) ([2]; donor seven): 0.04%
- Responding cells (% CD8) ([3]; donor seven): 0.01%

Sequence: CKTMQVNNKGIQIIYTRNHE
- ELISPOT Responses (SFC/10^6 PBMC) ([1]; donor sixteen): TC(154) SFC/10^6 PBMC
- Responding cells (% CD4) ([2]; donor sixteen): 0%
- Responding cells (% CD8) ([3]; donor sixteen): 0.14%

Sequence: CLPLMQKFPKQVMVRIFSTN (human cytomegalovirus IE2 CTL epitope peptide)
- ELISPOT Responses (SFC/10^6 PBMC) ([1]; donor sixteen): TC(256) SFC/10^6 PBMC
- Responding cells (% CD4) ([2]; donor sixteen): 0%
- Responding cells (% CD8) ([3]; donor sixteen): 0.15%

Sequence: DQYVKVYLESFCEDVPSGKL
- ELISPOT Responses (SFC/10^6 PBMC) ([1]; donor delta): SE(265) SFC/10^6 PBMC
- Responding cells (% CD4) ([2]; donor delta): 0%
- Responding cells (% CD8) ([3]; donor delta): 0.23%

Sequence: FRNTNRSLEYKNLPFTIPSM
- ELISPOT Responses (SFC/10^6 PBMC) ([1]; donor sixteen): TC(187) SFC/10^6 PBMC
- Responding cells (% CD4) ([2]; donor sixteen): 0%
- Responding cells (% CD8) ([3]; donor sixteen): 0.25%

Sequence: GAAQGDDDVWTSGSDSDEEL
- ELISPOT Responses (SFC/10^6 PBMC) ([1]; donor eight): JW(248) SFC/10^6 PBMC
- Responding cells (% CD4) ([2]; donor eight): 0%
- Responding cells (% CD8) ([3]; donor eight): 0.01%

Sequence: HQVLDEAIKACKTMQVNNKG
- ELISPOT Responses (SFC/10^6 PBMC) ([1]; donor sixteen): TC(234) SFC/10^6 PBMC
- Responding cells (% CD4) ([2]; donor sixteen): 0%
- Responding cells (% CD8) ([3]; donor sixteen): 0.18%

Sequence: KAAWSLKELHTHQLCPRSSD (human cytomegalovirus IE2 CTL epitope peptide)
- ELISPOT Responses (SFC/10^6 PBMC) ([1]; donor sixteen): TC(162) SFC/10^6 PBMC
- Responding cells (% CD4) ([2]; donor sixteen): 0%
- Responding cells (% CD8) ([3]; donor sixteen): 0.08%

Sequence: MLNIPSINV [reference compound]
- ELISPOT Responses (SFC/10^6 PBMC) ([1]; donor one): 178 SFC/10^6 PBMC
- ELISPOT Responses (SFC/10^6 PBMC) ([1]; donor seven): 65 SFC/10^6 PBMC
- MSE (MHC stabilization efficiency) [4]: ++ (++ = 100-199%)

Sequence: QPFMRPHERNGFTVLCPKNM
- ELISPOT Responses (SFC/10^6 PBMC) ([1]; donor delta): SE(783) SFC/10^6 PBMC
- Responding cells (% CD4) ([2]; donor two): 0.05%
- Responding cells (% CD8) ([3]; donor two): 0%

Sequence: RIFAELEGV [reference compound]
- donors recognizing the epitope in ELISPOT ([1]; cohort of eight HLA A2-positive healthy seropositive donors): 5 of the 8
- ELISPOT Responses (SFC/10^6 PBMC) ([1]; donor fifteen): CP(275) SFC/10^6 PBMC
- ELISPOT Responses (SFC/10^6 PBMC) ([1]; donor six): 170 SFC/10^6 PBMC
- ELISPOT Responses (SFC/10^6 PBMC) ([1]; donor ten): 236 SFC/10^6 PBMC
- MSE (MHC stabilization efficiency) [4]: ++ (++ = 100-199%)

Sequence: RIWCLVVCV (human cytomegalovirus gB CTL epitope peptide)
- ELISPOT Responses (SFC/10^6 PBMC) ([1]; donor fifteen): 105 SFC/10^6 PBMC
- ELISPOT Responses (SFC/10^6 PBMC) ([1]; donor one): 108 SFC/10^6 PBMC
- MSE (MHC stabilization efficiency) [4]: − (− = 0-50%)

Sequence: RLLQTGIHV [reference compound]
- ELISPOT Responses (SFC/10^6 PBMC) ([1]; donor thirteen): BS(57) SFC/10^6 PBMC
- MSE (MHC stabilization efficiency) [4]: ++ (++ = 100-199%)

Sequence: SDSESESEEMKCSSGGGASV (human cytomegalovirus IE2 CTL epitope peptide)
- ELISPOT Responses (SFC/10^6 PBMC) ([1]; donor sixteen): TC(147) SFC/10^6 PBMC
- Responding cells (% CD4) ([2]; donor sixteen): 0.01%
- Responding cells (% CD8) ([3]; donor sixteen): 0.22%

Sequence: SEPVSEIEEVAPEEEEDGAE (human cytomegalovirus IE1 CTL epitope peptide)
- ELISPOT Responses (SFC/10^6 PBMC) ([1]; donor delta): SE(200) SFC/10^6 PBMC
- Responding cells (% CD4) ([2]; donor delta): 0%
- Responding cells (% CD8) ([3]; donor delta): 0.097%

Sequence: SLLSEFCRV (human cytomegalovirus IE1 CTL epitope peptide)
- ELISPOT Responses (SFC/10^6 PBMC) ([1]; donor ten): WS(471) SFC/10^6 PBMC
- MSE (MHC stabilization efficiency) [4]: +++ (+++ = 200-300%)

Sequence: SSSSSSCSSASDSESESEEM (human cytomegalovirus IE2 CTL epitope peptide)
- ELISPOT Responses (SFC/10^6 PBMC) ([1]; donor eight): 125 SFC/10^6 PBMC
- ELISPOT Responses (SFC/10^6 PBMC) ([1]; donor sixteen): 93 SFC/10^6 PBMC
- Responding cells (% CD4) ([2]; donor eight): 0%
- Responding cells (% CD4) ([2]; donor sixteen): 0%
- Responding cells (% CD8) ([3]; donor eight): 0.01%
- Responding cells (% CD8) ([3]; donor sixteen): 0.05%

Sequence: TLLVLFIVYV (human cytomegalovirus US2 CTL epitope peptide)
- ELISPOT Responses (SFC/10^6 PBMC) ([1]; donor delta): SE(46) SFC/10^6 PBMC
- MSE (MHC stabilization efficiency) [4]: − (− = 0-50%)

Sequence: YILEETSVM (human cytomegalovirus IE1 CTL epitope peptide) [reference compound]
- ELISPOT Responses (SFC/10^6 PBMC) ([1]; donor seven): SB(764) SFC/10^6 PBMC
- MSE (MHC stabilization efficiency) [4]: ++ (++ = 100-199%)

Sequence: YLFSLVVLV (human cytomegalovirus US3 CTL epitope peptide)
- ELISPOT Responses (SFC/10^6 PBMC) ([1]; donor ten): WS(73) SFC/10^6 PBMC
- MSE (MHC stabilization efficiency) [4]: + (+ = 51-99%)
